# Reference: ChEMBL document CHEMBL1201862, “PubChem BioAssay data set” (2004)
# The source made the active and inactive calls.
# How the values were obtained:
# [1] = inhibition of ARNT PAS-B/TACC3 complex formation – biochemical, AlphaScreen, cherry-picked samples, confirmation (AID 651703); assay type: functional, Homo sapiens;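 further: His-tagged ARNT PAS-B domain paired with GST-TACC3 E629A dimer coactivator fragment; potency of inhibitors that break up the complex and lower AlphaScreen signal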
# H9c2 = experiment: cells; assay type: functional, cell-based; conditions: Rattus norvegicus, H9c2, Myocardium;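 further: confirmatory concentration-response retest of ultra-high-throughput screening hits for modulation of myocardial damage; cell death induced by hydrogen peroxide oxidative stress; compound pretreatment for 60 min then peroxide exposure for 2 h; potency is for protecting the cells against peroxide damage rather than for killing them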
# [2] = molecular target: T1, Sentrin-specific protease 8 (Homo sapiens, UniProt Q96LD8); assay type: functional;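 further: luminescence read-out of SENP8 inhibition, dose-response confirmation following an ultra-high-throughput screen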
# T1 sequence (Q96LD8 whole entry): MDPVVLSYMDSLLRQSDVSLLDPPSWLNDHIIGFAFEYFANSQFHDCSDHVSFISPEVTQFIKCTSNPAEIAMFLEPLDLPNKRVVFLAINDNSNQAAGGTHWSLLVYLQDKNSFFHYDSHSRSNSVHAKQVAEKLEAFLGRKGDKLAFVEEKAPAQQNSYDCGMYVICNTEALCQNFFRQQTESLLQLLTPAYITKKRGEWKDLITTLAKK
# Caspase-3 = molecular target: T2, Caspase-3 (Homo sapiens, UniProt P42574); assay type: functional;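 further: Dose-response selectivity test against caspase-3 for candidate inhibitors of sentrin-specific proteases (SENPs)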
# T2 sequence (P42574 whole entry): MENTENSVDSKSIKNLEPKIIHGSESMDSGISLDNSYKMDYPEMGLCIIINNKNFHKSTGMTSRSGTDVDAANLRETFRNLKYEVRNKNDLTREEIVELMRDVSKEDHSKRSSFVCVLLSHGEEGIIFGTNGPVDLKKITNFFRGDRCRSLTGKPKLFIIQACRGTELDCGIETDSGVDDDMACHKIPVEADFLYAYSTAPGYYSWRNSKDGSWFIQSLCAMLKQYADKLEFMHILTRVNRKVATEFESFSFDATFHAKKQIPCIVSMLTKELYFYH
# [3] = molecular target: T3, Sentrin-specific protease 6 (Homo sapiens, UniProt Q9GZR1); assay type: functional;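 further: Luminescence-based dose-response confirmatory assay of SENP6 inhibition, following up an ultra-high-throughput screen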
# T3 sequence (Q9GZR1 whole entry): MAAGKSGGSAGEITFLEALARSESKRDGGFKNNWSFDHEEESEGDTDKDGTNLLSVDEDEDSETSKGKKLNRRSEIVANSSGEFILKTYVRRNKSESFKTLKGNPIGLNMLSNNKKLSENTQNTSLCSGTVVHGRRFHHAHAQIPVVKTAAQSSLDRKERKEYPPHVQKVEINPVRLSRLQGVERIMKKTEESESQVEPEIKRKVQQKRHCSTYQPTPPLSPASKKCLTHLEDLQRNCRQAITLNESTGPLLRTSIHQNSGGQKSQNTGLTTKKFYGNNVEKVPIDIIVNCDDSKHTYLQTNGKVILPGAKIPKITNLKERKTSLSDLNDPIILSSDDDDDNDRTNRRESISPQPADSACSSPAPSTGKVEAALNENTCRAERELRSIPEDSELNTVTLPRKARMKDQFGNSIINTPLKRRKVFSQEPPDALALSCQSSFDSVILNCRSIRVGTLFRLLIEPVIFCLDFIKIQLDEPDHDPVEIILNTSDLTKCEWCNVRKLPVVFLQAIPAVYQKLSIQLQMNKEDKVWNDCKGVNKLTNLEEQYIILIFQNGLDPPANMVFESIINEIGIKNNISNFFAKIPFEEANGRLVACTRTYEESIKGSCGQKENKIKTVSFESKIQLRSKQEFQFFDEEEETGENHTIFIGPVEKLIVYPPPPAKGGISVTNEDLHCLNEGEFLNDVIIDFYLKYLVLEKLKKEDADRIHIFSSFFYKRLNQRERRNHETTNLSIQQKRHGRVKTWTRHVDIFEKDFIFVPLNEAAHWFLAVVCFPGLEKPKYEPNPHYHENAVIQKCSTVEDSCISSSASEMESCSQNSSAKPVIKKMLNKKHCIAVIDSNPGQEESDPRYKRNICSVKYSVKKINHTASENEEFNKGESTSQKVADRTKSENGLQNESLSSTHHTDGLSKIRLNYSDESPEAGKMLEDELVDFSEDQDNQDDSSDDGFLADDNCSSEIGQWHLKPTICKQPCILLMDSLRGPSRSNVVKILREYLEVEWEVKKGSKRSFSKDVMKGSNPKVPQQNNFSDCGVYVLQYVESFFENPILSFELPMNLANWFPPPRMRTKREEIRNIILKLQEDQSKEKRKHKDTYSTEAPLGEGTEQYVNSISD
# [4] = molecular target: T4, Sentrin-specific protease 7 (Homo sapiens, UniProt Q9BQF6); assay type: functional;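 further: Luminescence-based dose-response confirmation of ultra-high-throughput screening hits, measuring inhibition of SENP7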
# T4 sequence (Q9BQF6 whole entry): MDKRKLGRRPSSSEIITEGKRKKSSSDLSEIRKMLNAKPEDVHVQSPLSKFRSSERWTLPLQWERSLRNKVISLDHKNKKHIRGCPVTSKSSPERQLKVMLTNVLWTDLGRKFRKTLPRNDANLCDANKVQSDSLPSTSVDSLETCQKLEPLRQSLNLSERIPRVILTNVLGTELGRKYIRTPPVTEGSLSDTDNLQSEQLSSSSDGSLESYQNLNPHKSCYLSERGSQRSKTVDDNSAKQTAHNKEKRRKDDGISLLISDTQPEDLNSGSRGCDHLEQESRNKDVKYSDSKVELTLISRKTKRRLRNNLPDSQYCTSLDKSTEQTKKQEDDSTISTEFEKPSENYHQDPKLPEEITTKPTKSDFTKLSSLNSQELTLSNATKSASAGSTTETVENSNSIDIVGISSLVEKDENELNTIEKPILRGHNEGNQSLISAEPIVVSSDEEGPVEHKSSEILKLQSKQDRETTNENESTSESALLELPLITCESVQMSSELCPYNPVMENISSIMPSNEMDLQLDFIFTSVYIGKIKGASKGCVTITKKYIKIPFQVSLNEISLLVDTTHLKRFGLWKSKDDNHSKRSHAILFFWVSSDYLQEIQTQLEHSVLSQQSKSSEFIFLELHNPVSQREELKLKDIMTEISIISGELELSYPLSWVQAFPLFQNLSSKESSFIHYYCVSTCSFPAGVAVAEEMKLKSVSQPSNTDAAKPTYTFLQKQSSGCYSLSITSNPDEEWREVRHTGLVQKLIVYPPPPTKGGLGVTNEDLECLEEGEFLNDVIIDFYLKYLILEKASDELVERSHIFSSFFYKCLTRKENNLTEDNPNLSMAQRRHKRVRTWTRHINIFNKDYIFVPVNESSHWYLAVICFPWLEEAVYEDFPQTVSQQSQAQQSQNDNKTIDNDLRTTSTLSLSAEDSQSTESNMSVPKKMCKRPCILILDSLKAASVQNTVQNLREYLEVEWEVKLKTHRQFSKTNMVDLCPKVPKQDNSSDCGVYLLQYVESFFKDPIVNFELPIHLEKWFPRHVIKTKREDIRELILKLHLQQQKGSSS
# [5] = molecular target: DNA (cytosine-5)-methyltransferase 1 (Homo sapiens, UniProt P26358); experiment: inhibition of DNA methylation by DNMT1 – biochemical, fluorescent molecular beacon, confirmation (AID 602386); assay type: functional
# Sequence of DNA (cytosine-5)-methyltransferase 1 (P26358 whole entry, the tested form may be a part): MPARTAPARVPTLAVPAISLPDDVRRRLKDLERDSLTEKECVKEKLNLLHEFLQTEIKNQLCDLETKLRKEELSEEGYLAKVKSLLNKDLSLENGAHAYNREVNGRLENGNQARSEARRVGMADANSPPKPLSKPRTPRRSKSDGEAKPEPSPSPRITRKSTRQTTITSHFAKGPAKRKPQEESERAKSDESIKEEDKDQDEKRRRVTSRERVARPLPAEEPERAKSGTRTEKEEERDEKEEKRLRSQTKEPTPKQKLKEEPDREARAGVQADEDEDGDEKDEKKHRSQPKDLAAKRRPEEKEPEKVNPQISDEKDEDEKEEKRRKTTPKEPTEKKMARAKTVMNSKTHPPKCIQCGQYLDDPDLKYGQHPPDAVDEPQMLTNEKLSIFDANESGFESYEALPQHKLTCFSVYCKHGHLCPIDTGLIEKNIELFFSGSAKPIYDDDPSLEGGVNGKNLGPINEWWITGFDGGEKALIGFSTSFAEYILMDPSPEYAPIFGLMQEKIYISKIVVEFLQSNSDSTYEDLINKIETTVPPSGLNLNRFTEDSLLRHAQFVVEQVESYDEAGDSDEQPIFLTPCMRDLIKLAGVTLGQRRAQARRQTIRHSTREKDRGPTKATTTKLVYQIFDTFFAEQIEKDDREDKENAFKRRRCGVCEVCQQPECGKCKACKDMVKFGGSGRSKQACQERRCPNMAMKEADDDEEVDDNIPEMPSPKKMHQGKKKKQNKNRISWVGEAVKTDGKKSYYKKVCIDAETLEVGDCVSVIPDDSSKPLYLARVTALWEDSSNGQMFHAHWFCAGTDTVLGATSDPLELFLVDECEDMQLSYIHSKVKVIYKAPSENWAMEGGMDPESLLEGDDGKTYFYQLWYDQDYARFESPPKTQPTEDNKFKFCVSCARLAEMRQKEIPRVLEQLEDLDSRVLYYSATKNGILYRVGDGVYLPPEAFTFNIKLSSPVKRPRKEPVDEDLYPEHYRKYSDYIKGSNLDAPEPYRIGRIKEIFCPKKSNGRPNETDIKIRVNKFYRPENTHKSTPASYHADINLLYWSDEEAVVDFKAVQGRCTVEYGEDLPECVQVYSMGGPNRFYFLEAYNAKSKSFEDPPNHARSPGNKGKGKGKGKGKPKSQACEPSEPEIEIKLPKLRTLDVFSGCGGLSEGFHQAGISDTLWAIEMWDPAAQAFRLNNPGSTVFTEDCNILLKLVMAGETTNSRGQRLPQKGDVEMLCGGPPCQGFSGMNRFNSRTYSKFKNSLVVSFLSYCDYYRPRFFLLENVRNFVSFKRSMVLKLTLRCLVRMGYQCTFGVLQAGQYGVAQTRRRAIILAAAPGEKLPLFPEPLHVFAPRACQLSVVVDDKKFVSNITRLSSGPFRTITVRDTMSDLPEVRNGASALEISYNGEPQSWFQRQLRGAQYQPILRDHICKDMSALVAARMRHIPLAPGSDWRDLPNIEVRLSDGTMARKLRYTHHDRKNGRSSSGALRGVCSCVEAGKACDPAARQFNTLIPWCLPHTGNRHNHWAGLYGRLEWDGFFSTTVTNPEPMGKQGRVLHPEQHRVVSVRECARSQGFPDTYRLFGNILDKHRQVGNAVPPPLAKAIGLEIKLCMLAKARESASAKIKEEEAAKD
# [6] = molecular target: T5, Carboxy-terminal domain RNA polymerase II polypeptide A small phosphatase 1 (Homo sapiens, UniProt Q9GZU7); experiment: CTDSP1 inhibitors, concentration-response, biochemical, absorbance readout, ultra-high-throughput screen actives (AID 540297); assay type: functional
# T5 sequence (Q9GZU7 whole entry): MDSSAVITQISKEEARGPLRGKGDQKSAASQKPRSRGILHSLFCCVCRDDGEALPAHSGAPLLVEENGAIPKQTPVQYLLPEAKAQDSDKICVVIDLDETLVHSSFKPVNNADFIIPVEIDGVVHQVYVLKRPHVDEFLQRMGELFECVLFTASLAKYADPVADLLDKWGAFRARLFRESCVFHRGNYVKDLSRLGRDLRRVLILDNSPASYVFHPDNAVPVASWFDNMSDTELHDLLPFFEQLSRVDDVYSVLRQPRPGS
# [7] = molecular target: Induced myeloid leukemia cell differentiation protein Mcl-1 (Homo sapiens, UniProt Q07820); assay type: functional
# Sequence of Induced myeloid leukemia cell differentiation protein Mcl-1 (Q07820 whole entry): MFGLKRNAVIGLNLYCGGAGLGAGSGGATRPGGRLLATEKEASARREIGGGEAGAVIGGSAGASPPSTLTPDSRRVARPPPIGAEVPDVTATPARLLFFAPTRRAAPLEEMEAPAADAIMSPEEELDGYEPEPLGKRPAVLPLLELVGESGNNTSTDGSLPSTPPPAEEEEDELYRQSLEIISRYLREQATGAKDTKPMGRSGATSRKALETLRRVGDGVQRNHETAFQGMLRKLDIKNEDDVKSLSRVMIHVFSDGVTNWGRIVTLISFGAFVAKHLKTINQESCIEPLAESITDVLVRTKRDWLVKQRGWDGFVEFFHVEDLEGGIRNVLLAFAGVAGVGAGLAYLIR
# [8] = bead-based luminescence quenchers, dual-tagged ARNT – biochemical, AlphaScreen, cherry-pick, artefact control for ARNT-TACC3 interaction inhibitor project, dose response (AID 651705); assay type: functional;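 further: AlphaScreen bead proximity signal that flags compounds interfering with the detection technology; potency reflects signal decrease which marks the compound as an assay artifact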
# [9] = Trypanosoma cruzi growth suppression in host cells – NIH3T3 host cells, beta-gal luminescence, confirmation (AID 2044); assay type: functional, cell-based;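 further: intracellular parasites grown in NIH/3T3 mouse fibroblasts as host cells; luminescent beta-galactosidase reporter signal from transgenic T. cruzi replicating inside host cells; inhibitors lower the luminescence signal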
# [10] = NIH3T3 cell viability loss – ATP luminescence, mouse fibroblasts, counter-screen, dose response (AID 2010); assay type: functional, cell-based;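 further: cells exposed to compound for about 90 hours before reading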
# [11] = A cytotoxicity screen of small molecule inhibitors of the PhoP region in Salmonella typhi identified in the primary screen. [Related pubchem assays: 1850, 1864, 1985 ]; assay type: functional
# [12] = test system: Streptococcus sp. 'group A'; experiment: Streptococcus pyogenes SK(-)GAS viability under kanamycin – luminescence, BacTiterGlo, confirmation, counter-screen for streptokinase expression inhibitor project, dose response (AID 1900); assay type: functional, organism-based
# Streptokinase A = molecular target: T6, Streptokinase A (Streptococcus pyogenes serotype M1, UniProt P10520); experiment: viability-normalized secreted streptokinase activity reduction – plasminogen activation absorbance, OD405, dose response (AID 1914); assay type: functional, Streptococcus pyogenes M1 GAS;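 further: secreted streptokinase activity via plasminogen activation per viability signal from cell pellet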
# T6 sequence (P10520 whole entry): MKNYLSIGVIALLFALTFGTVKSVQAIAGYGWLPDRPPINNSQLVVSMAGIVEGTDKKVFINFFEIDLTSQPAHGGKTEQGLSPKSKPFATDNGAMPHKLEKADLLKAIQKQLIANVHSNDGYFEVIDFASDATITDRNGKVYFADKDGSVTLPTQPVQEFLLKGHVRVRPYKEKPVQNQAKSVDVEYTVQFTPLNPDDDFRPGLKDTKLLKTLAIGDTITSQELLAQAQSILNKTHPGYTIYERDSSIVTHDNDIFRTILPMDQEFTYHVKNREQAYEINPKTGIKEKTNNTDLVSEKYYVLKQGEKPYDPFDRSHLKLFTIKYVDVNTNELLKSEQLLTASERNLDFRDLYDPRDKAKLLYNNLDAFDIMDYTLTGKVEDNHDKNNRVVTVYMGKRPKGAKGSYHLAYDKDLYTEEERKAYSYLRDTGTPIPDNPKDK
# [13] = THP-1 cell cytotoxicity, dose response, cytotoxicity control for non-replicating M. tuberculosis project (AID 489025); assay type: functional
# cells = assay type: functional
# Streptococcus = experiment: GAS UMAA2166 growth inhibition – luminescence, BacTiterGlo, counter-screen for streptokinase expression inhibitor project, dose response (AID 1915); assay type: functional, organism-based;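 further: potency for reduction of bacterial viability or growth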
# [14] = Vero E6 cell cytotoxicity, dose response, cytotoxicity control for non-replicating M. tuberculosis project, secondary assay (AID 492998); assay type: functional, VeroE6; conditions: Vero C1008
# [15] = intracellular Trypanosoma cruzi inhibitors in host cells – cell-based, plate reader, cherry-pick samples, set 3, dose response (AID 651818); assay type: functional;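 further: compounds incubated with infected cells for about four days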
structure (smiles),measurement,setting,value
COCCn1c(N)c(C(=O)NCc2cccs2)c2nc3ccccc3nc21,AC50,[1],130 µM (active)
Cc1c(Cl)cnc(NC(=O)COC(=O)c2ccc([N+](=O)[O-])s2)c1Cl,IC50,H9c2,> 79 µM (inactive)
same,IC50,[2],6.85 µM (active)
same,IC50,Caspase-3,11.1 µM (active)
same,IC50,[3],5.92 µM (active)
same,IC50,[4],10.6 µM (active)
O=C1CC(=O)NC(SCC(=O)Nc2ccccc2[N+](=O)[O-])=N1,IC50,[5],8.51 µM (active)
same,IC50,[6],4.04 µM (active)
O=C(O)c1cccc(-c2nnn(Cc3ccccc3Cl)n2)c1,IC50,[2],10.9 µM (active)
same,IC50,Caspase-3,15.6 µM (active)
same,IC50,[3],> 100 µM (inactive)
same,IC50,[4],> 100 µM (inactive)
O=C(COC(=O)c1ccc(NS(=O)(=O)c2cccs2)cc1)NCc1ccco1,IC50,[5],9.6 µM (active)
same,IC50,[7],3.09 µM (active)
O=C(CSc1ccc2nnc(-c3ccccn3)n2n1)Nc1ccccc1C(F)(F)F,AC50,[8],136 µM (active)
Cc1ccc(C(=O)COC(=O)c2cccc(NC(=O)c3ccc([N+](=O)[O-])cc3[N+](=O)[O-])c2)cc1,IC50,[2],> 100 µM (inactive)
same,EC50,[9],1.11 µM (active)
same,EC50,[10],> 60 µM (not active)
same,IC50,Caspase-3,22.2 µM (active)
same,IC50,[3],4.89 µM (active)
same,IC50,[4],5.97 µM (active)
O=C(Nc1nnc(-c2ccccn2)o1)c1cccc(Cl)c1,EC50,[11],> 50 µM (active)
same,EC50,[12],2.42 µM (active)
same,EC50,Streptokinase A,> 150 µM (not active)
same,CC50,[13],> 40 µM (active)
same,IC50,cells,3.73 µM (active)
same,EC50,Streptococcus,16.5 µM (active)
same,CC50,[14],> 20 µM (active)
same,AC50,[8],89.6 µM (active)
CCCCCCCCC(=O)c1c(OC)oc(C=O)cc1=O,IC50,[5],8.25 µM (active)
C[C@H]1CN([C@@H](C)CO)C(=O)c2cccc(NC(=O)Nc3cccc4ccccc34)c2O[C@H]1CN(C)S(=O)(=O)c1cccs1,AC50,[15],4.61 µM (active)
C[C@@H]1CN([C@@H](C)CO)C(=O)c2cccc(NC(=O)Nc3ccc4c(c3)OCO4)c2O[C@H]1CN(C)Cc1ccc(C(=O)Nc2ccccc2N)cc1,AC50,[15],1.04 µM (active)
C[C@H]1CN([C@@H](C)CO)C(=O)c2cccc(NC(=O)CCCCCC(=O)Nc3ccccc3N)c2O[C@@H]1CN(C)CC1CC1,AC50,[15],2.88 µM (active)
CCOC(=O)c1ccccc1N/C=C/C(=O)c1ccccc1,IC50,[2],18.7 µM (active)
same,IC50,Caspase-3,33.1 µM (active)
same,IC50,[3],16.2 µM (active)
same,IC50,[4],9.9 µM (active)
